{"source": "patent US12077503B2", "about": "“Substituted cyclic amides and their use as herbicides” (FMC CORPORATION, priority 2015, dated 2024)", "type_in_all_cases": "in vivo", "key": {"[1]": {"tested_on": "pigweed (Amaranthus retroflexus)", "experiment": "Test A postemergence", "method_in_brief": "(§1)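 Compounds were formulated in a non-phytotoxic solvent mixture with surfactant and applied as a preemergence directed soil spray after seeding, or sprayed postemergence over plants 2 to 10 cm tall at the one- to two-leaf stage. Evaluation after about 10 d compared treated with untreated controls, using a scale from 0 (no effect) to 100 (complete control).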"}, "[2]": {"tested_on": "barnyardgrass (Echinochloa crus-galli)", "experiment": "Test A postemergence", "method_in_brief": "as §1"}, "[3]": {"tested_on": "giant foxtail (Setaria faberii)", "experiment": "Test A postemergence", "method_in_brief": "as §1"}, "[4]": {"tested_on": "corn (Zea mays)", "experiment": "Test A postemergence", "method_in_brief": "as §1"}, "[5]": {"tested_on": "ryegrass, Italian (Italian ryegrass, Lolium multiflorum)", "experiment": "Test A postemergence", "method_in_brief": "as §1"}, "[6]": {"tested_on": "wheat (Triticum aestivum)", "experiment": "Test A postemergence", "method_in_brief": "as §1"}, "[7]": {"tested_on": "Galium (catchweed bedstraw, Galium aparine)", "experiment": "Test A postemergence", "method_in_brief": "as §1"}, "[8]": {"tested_on": "blackgrass (Alopecurus myosuroides)", "experiment": "Test A postemergence", "method_in_brief": "as §1"}, "[9]": {"tested_on": "Kochia (Kochia scoparia)", "experiment": "Test A postemergence", "method_in_brief": "as §1"}, "[10]": {"tested_on": "ragweed (common ragweed, Ambrosia elatior)", "experiment": "Test A postemergence", "method_in_brief": "as §1"}, "[11]": {"tested_on": "pigweed (Amaranthus retroflexus)", "experiment": "Test A preemergence", "details": "Preemergence"}, "[12]": {"tested_on": "barnyardgrass (Echinochloa crus-galli)", "experiment": "Test A preemergence", "details": "Preemergence", "method_in_brief": "as §1"}, "[13]": {"tested_on": "giant foxtail (Setaria faberii)", "experiment": "Test A preemergence", "details": "Preemergence", "method_in_brief": "as §1"}, "[14]": {"tested_on": "ryegrass, Italian (Italian ryegrass, Lolium multiflorum)", "experiment": "Test A preemergence", "details": "Preemergence", "method_in_brief": "as §1"}, "[15]": {"tested_on": "Kochia (Kochia scoparia)", "experiment": "Test A preemergence", "details": "Preemergence", "method_in_brief": "as §1"}, "[16]": {"tested_on": "ragweed (common ragweed, Ambrosia elatior)", "experiment": "Test A preemergence", "details": "Preemergence", "method_in_brief": "as §1"}, "[17]": {"tested_on": "sedge, umbrella (small-flower umbrella sedge, Cyperus difformis)", "experiment": "Test B flooded paddy test", "details": "Flood, 250 g ai/ha; 0 to 100 scale where 0 is no effect and 100 is complete control; 13 to 15 d", "method_in_brief": "(§2)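 Greenhouse paddy pots with 2-leaf stage plants received compound by direct addition to floodwater 3 cm deep, kept at that level. Scored visually at 13–15 d versus controls (0 no effect; 100 complete control).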"}, "[18]": {"tested_on": "ducksalad (Heteranthera limosa)", "experiment": "Test B flooded paddy test", "details": "Flood, 250 g ai/ha; 0 to 100 scale where 0 is no effect and 100 is complete control; 13 to 15 d", "method_in_brief": "as §2"}, "[19]": {"tested_on": "barnyardgrass (Echinochloa crus-galli)", "experiment": "Test B flooded paddy test", "details": "Flood, 250 g ai/ha; 0 to 100 scale where 0 is no effect and 100 is complete control; 13 to 15 d", "method_in_brief": "as §2"}, "[20]": {"tested_on": "rice (Oryra sativa)", "experiment": "Test B flooded paddy test", "details": "Flood, 250 g ai/ha; 0 to 100 scale where 0 is no effect and 100 is complete control; 13 to 15 d", "method_in_brief": "as §2"}, "[21]": {"details": "125 g ai/ha, postemergence, visual injury rating on 0 to 100 scale (0 no effect, 100 complete control), approx. 10 d"}, "[22]": {"details": "Postemergence, 500 g ai/ha, 0 to 100 scale where 0 is no effect and 100 is complete control"}, "[23]": {"details": "125 g ai/ha, visual injury after approximately 10 d, 0 to 100 scale where 0 is no effect and 100 is complete control"}, "[24]": {"details": "500 g ai/ha, visual injury approx. 10 d"}}, "data": [{"molecule": "CN1CC(c2cccc(OC(F)F)c2)C(C(=O)Nc2ccccc2S(C)(=O)=O)C1=O", "note": "(stereo not drawn) [Compound 523]", "values": [{"measurement": "Pigweed plant response rating", "setting": "[1]; [21]", "value": 30}, {"measurement": "Plant response rating, Pigweed", "setting": "[1]; [22]", "value": 60}, {"measurement": "Barnyardgrass plant response rating", "setting": "[2]; [21]", "value": 90}, {"measurement": "Plant response rating, Barnyardgrass", "setting": "[2]; [22]", "value": 90}, {"measurement": "Foxtail, Giant plant response rating", "setting": "[3]; [21]", "value": 80}, {"measurement": "Plant response rating, Foxtail, Giant", "setting": "[3]; [22]", "value": 90}, {"measurement": "Corn plant response rating", "setting": "[4]; [21]", "value": 20}, {"measurement": "Plant response rating, Corn", "setting": "[4]; [22]", "value": 80}, {"measurement": "Ryegrass, Italian plant response rating", "setting": "[5]; [21]", "value": 30}, {"measurement": "Plant response rating, Ryegrass, Italian", "setting": "[5]; [22]", "value": 70}, {"measurement": "Wheat plant response rating", "setting": "[6]; [21]", "value": 0}, {"measurement": "Plant response rating, Wheat", "setting": "[6]; [22]", "value": 70}, {"measurement": "Galium plant response rating", "setting": "[7]; [21]", "value": 50}, {"measurement": "Plant response rating, Galium", "setting": "[7]; [22]", "value": 60}, {"measurement": "Blackgrass plant response rating", "setting": "[8]; [21]", "value": 50}, {"measurement": "Plant response rating, Blackgrass", "setting": "[8]; [22]", "value": 70}, {"measurement": "Kochia plant response rating", "setting": "[9]; [21]", "value": 20}, {"measurement": "Plant response rating, Kochia", "setting": "[9]; [22]", "value": 50}, {"measurement": "Ragweed plant response rating", "setting": "[10]; [21]", "value": 50}, {"measurement": "Plant response rating, Ragweed", "setting": "[10]; [22]", "value": 50}, {"measurement": "Plant response rating, Pigweed", "setting": "[11]; [23]", "value": 80}, {"measurement": "Pigweed plant response rating (0 to 100 scale, 0 is no effect, 100 is complete control)", "setting": "[11]; [24]", "value": 90}, {"measurement": "Plant response rating, Barnyardgrass", "setting": "[12]; [23]", "value": 90}, {"measurement": "Barnyardgrass plant response rating (0 to 100 scale, 0 is no effect, 100 is complete control)", "setting": "[12]; [24]", "value": 90}, {"measurement": "Plant response rating, Foxtail, Giant", "setting": "[13]; [23]", "value": 90}, {"measurement": "Foxtail, Giant plant response rating (0 to 100 scale, 0 is no effect, 100 is complete control)", "setting": "[13]; [24]", "value": 90}, {"measurement": "Plant response rating, Ryegrass, Italian", "setting": "[14]; [23]", "value": 40}, {"measurement": "Ryegrass, Italian plant response rating (0 to 100 scale, 0 is no effect, 100 is complete control)", "setting": "[14]; [24]", "value": 90}, {"measurement": "Plant response rating, Kochia", "setting": "[15]; [23]", "value": 0}, {"measurement": "Kochia plant response rating (0 to 100 scale, 0 is no effect, 100 is complete control)", "setting": "[15]; [24]", "value": 80}, {"measurement": "Plant response rating, Ragweed", "setting": "[16]; [23]", "value": 60}, {"measurement": "Ragweed plant response rating (0 to 100 scale, 0 is no effect, 100 is complete control)", "setting": "[16]; [24]", "value": 80}, {"measurement": "Plant response rating, Sedge, Umbrella", "setting": "[17]", "value": 0}, {"measurement": "Plant response rating, Ducksalad", "setting": "[18]", "value": 50}, {"measurement": "Plant response rating, Barnyardgrass", "setting": "[19]", "value": 50}, {"measurement": "Plant response rating, Rice", "setting": "[20]", "value": 0}]}]}
